According to PubChem BioAssay AID1745844 (Carcinogenic Potency Database (CPDB), 2022):

Test system: rodent lifetime carcinogenesis bioassay, tumor incidence TD50
Test: chronic cancer bioassays in animals – CPDB, compiled studies (AID 1745844)
Details: mouse, strain B6C3F1, males, inhaled

## C=CC=C
site: Harderian gland, lesion: adenocarcinoma + adenocarcinoma, bilateral, dosed 52 weeks, study length 104 weeks
  TD50: 88.9 mg/kg/day
site: Harderian gland, lesion: adenocarcinoma + adenoma + adenocarcinoma, bilateral + adenoma, bilateral, dosed 13 weeks, study length 104 weeks
  TD50: 11.7 mg/kg/day
site: Harderian gland, lesion: adenocarcinoma + adenoma + adenocarcinoma, bilateral + adenoma, bilateral, dosed 26 weeks, study length 104 weeks
  TD50: 22.7 mg/kg/day
site: Harderian gland, lesion: adenocarcinoma + adenoma + adenocarcinoma, bilateral + adenoma, bilateral, dosed 52 weeks, study length 104 weeks
  TD50: 13.1 mg/kg/day
site: Harderian gland, lesion: adenocarcinoma + adenoma + adenoma, bilateral, dosed 40 weeks, study length 104 weeks
  TD50: 17.5 mg/kg/day
site: Harderian gland, lesion: adenocarcinoma + adenoma + adenoma, bilateral, dosed 82 weeks, study length 104 weeks
  TD50: 26.1 mg/kg/day
site: Harderian gland, lesion: adenocarcinoma, dosed 40 weeks, study length 104 weeks
  TD50: 531 mg/kg/day
site: Harderian gland, lesion: adenocarcinoma, dosed 82 weeks, study length 104 weeks
  TD50: 221 mg/kg/day
site: Harderian gland, lesion: adenoma + adenoma, bilateral, dosed 13 weeks, study length 104 weeks
  TD50: 14.9 mg/kg/day
site: Harderian gland, lesion: adenoma + adenoma, bilateral, dosed 26 weeks, study length 104 weeks
  TD50: 22.7 mg/kg/day
site: Harderian gland, lesion: adenoma + adenoma, bilateral, dosed 40 weeks, study length 104 weeks
  TD50: 18 mg/kg/day
site: Harderian gland, lesion: adenoma + adenoma, bilateral, dosed 52 weeks, study length 104 weeks
  TD50: 14.9 mg/kg/day
site: Harderian gland, lesion: adenoma + adenoma, bilateral, dosed 82 weeks, study length 104 weeks
  TD50: 27.6 mg/kg/day
site: Zymbal's gland, lesion: adenoma + carcinoma, dosed 13 weeks, study length 104 weeks
  TD50: 223 mg/kg/day
site: Zymbal's gland, lesion: adenoma + carcinoma, dosed 26 weeks, study length 104 weeks
  TD50: 135 mg/kg/day
site: Zymbal's gland, lesion: adenoma + carcinoma, dosed 40 weeks, study length 104 weeks
  TD50: 647 mg/kg/day
site: Zymbal's gland, lesion: carcinoma, dosed 13 weeks, study length 104 weeks
  TD50: 336 mg/kg/day
site: Zymbal's gland, lesion: carcinoma, dosed 26 weeks, study length 104 weeks
  TD50: 135 mg/kg/day
site: Zymbal's gland, lesion: carcinoma, dosed 40 weeks, study length 104 weeks
  TD50: 625 mg/kg/day
site: all sites + brain + forestomach + Harderian gland + heart + kidney + liver + lung + preputial gland, lesion: histiocytic sarcoma + malignant lymphoma, mixed type + malignant lymphoma, lymphocytic type + malignant lymphoma + olfactory lob, dosed 13 weeks, study length 104 weeks
  TD50: 7 mg/kg/day
site: all sites + brain + forestomach + Harderian gland + heart + kidney + liver + lung + preputial gland, lesion: histiocytic sarcoma + malignant lymphoma, mixed type + malignant lymphoma, lymphocytic type + malignant lymphoma + olfactory lob, dosed 26 weeks, study length 104 weeks
  TD50: 12.6 mg/kg/day
site: all sites + forestomach + Harderian gland + heart + kidney + liver + lung + preputial gland, lesion: histiocytic sarcoma + malignant lymphoma, histiocytic type + malignant lymphoma, mixed type + malignant lymphoma, lymphocytic, dosed 82 weeks, study length 104 weeks
  TD50: 10.7 mg/kg/day
site: all sites + forestomach + Harderian gland + heart + kidney + liver + lung + preputial gland, lesion: histiocytic sarcoma + malignant lymphoma, mixed type + malignant lymphoma, lymphocytic type + malignant lymphoma + squamous-cell, dosed 40 weeks, study length 104 weeks
  TD50: 10.9 mg/kg/day
site: all sites + forestomach + Harderian gland + heart + kidney + liver + lung + preputial gland, lesion: histiocytic sarcoma + malignant lymphoma, mixed type + malignant lymphoma, lymphocytic type + malignant lymphoma + squamous-cell, dosed 52 weeks, study length 104 weeks
  TD50: 6.12 mg/kg/day
site: all sites + forestomach + heart + lung, lesion: malignant lymphoma, NOS + papilloma, NOS + squamous-cell papilloma + hemangiosarcoma + alveolar/bronchiolar adenoma + alveolar/bro, dosed 60 weeks, study length 60 weeks
  TD50: 28.8 mg/kg/day
site: all sites, lesion: hemangioma + hemangiosarcoma, dosed 13 weeks, study length 104 weeks
  TD50: 16.9 mg/kg/day
site: all sites, lesion: hemangioma + hemangiosarcoma, dosed 26 weeks, study length 104 weeks
  TD50: 17.7 mg/kg/day
site: all sites, lesion: hemangioma + hemangiosarcoma, dosed 40 weeks, study length 104 weeks
  TD50: 17.3 mg/kg/day
site: all sites, lesion: hemangioma + hemangiosarcoma, dosed 52 weeks, study length 104 weeks
  TD50: 11.1 mg/kg/day
site: all sites, lesion: hemangioma + hemangiosarcoma, dosed 82 weeks, study length 104 weeks
  TD50: 38 mg/kg/day
site: all sites, lesion: hemangioma, dosed 13 weeks, study length 104 weeks
  TD50: 45.8 mg/kg/day
site: all sites, lesion: hemangioma, dosed 40 weeks, study length 104 weeks
  TD50: 95.2 mg/kg/day
site: all sites, lesion: hemangiosarcoma, dosed 13 weeks, study length 104 weeks
  TD50: 21.9 mg/kg/day
site: all sites, lesion: hemangiosarcoma, dosed 26 weeks, study length 104 weeks
  TD50: 17.7 mg/kg/day
site: all sites, lesion: hemangiosarcoma, dosed 40 weeks, study length 104 weeks
  TD50: 20.8 mg/kg/day
site: all sites, lesion: hemangiosarcoma, dosed 52 weeks, study length 104 weeks
  TD50: 11.9 mg/kg/day
site: all sites, lesion: hemangiosarcoma, dosed 82 weeks, study length 104 weeks
  TD50: 45.5 mg/kg/day
site: all sites, lesion: histiocytic sarcoma + malignant lymphoma, histiocytic type + malignant lymphoma, mixed type + malignant lymphoma, lymphocytic, dosed 82 weeks, study length 104 weeks
  TD50: 63.5 mg/kg/day
site: all sites, lesion: histiocytic sarcoma + malignant lymphoma, mixed type + malignant lymphoma, lymphocytic type + malignant lymphoma, dosed 13 weeks, study length 104 weeks
  TD50: 26.2 mg/kg/day
site: all sites, lesion: histiocytic sarcoma + malignant lymphoma, mixed type + malignant lymphoma, lymphocytic type + malignant lymphoma, dosed 26 weeks, study length 104 weeks
  TD50: 28.8 mg/kg/day
site: all sites, lesion: histiocytic sarcoma + malignant lymphoma, mixed type + malignant lymphoma, lymphocytic type + malignant lymphoma, dosed 40 weeks, study length 104 weeks
  TD50: 57.1 mg/kg/day
site: all sites, lesion: histiocytic sarcoma + malignant lymphoma, mixed type + malignant lymphoma, lymphocytic type + malignant lymphoma, dosed 52 weeks, study length 104 weeks
  TD50: 27.6 mg/kg/day
site: all sites, lesion: histiocytic sarcoma, dosed 13 weeks, study length 104 weeks
  TD50: 91.1 mg/kg/day
site: all sites, lesion: histiocytic sarcoma, dosed 26 weeks, study length 104 weeks
  TD50: 396 mg/kg/day
site: all sites, lesion: histiocytic sarcoma, dosed 40 weeks, study length 104 weeks
  TD50: 128 mg/kg/day
site: all sites, lesion: histiocytic sarcoma, dosed 52 weeks, study length 104 weeks
  TD50: 110 mg/kg/day
site: all sites, lesion: histiocytic sarcoma, dosed 82 weeks, study length 104 weeks
  TD50: 157 mg/kg/day
site: all sites, lesion: malignant lymphoma, NOS, dosed 60 weeks, study length 60 weeks
  TD50: 105 mg/kg/day
site: all sites, lesion: malignant lymphoma, histiocytic type + malignant lymphoma, mixed type + malignant lymphoma, lymphocytic type + malignant lymph, dosed 82 weeks, study length 104 weeks
  TD50: 99.8 mg/kg/day
site: all sites, lesion: malignant lymphoma, lymphocytic type, dosed 13 weeks, study length 104 weeks
  TD50: 66.8 mg/kg/day
site: all sites, lesion: malignant lymphoma, lymphocytic type, dosed 26 weeks, study length 104 weeks
  TD50: 46 mg/kg/day
site: all sites, lesion: malignant lymphoma, lymphocytic type, dosed 40 weeks, study length 104 weeks
  TD50: 142 mg/kg/day
site: all sites, lesion: malignant lymphoma, lymphocytic type, dosed 52 weeks, study length 104 weeks
  TD50: 129 mg/kg/day
site: all sites, lesion: malignant lymphoma, lymphocytic type, dosed 82 weeks, study length 104 weeks
  TD50: 157 mg/kg/day
site: all sites, lesion: malignant lymphoma, mixed type + malignant lymphoma, lymphocytic type + malignant lymphoma, dosed 13 weeks, study length 104 weeks
  TD50: 34.9 mg/kg/day
